Each block holds one compound with its values, some of them ahead of it. Active and inactive are the calls of the source.
Key:
BJ [1] = assay: BJ-TERT fibroblast viability loss – cell-based, RAS-independent, luminescence, dose response (AID 1933); assay type: functional; details: Homo sapiens
BJ [2] = assay: cells; assay type: functional, cell-based; details: Homo sapiens
[3] = DRD fibroblast viability loss – cell-based, non-viral oncogenic, luminescence, dose response (AID 1934); assay type: functional; details: Homo sapiens
CHO-K1 = assay: (§1) Counterscreen for antagonists of the orexin 1 receptor (OX1R; HCRTR1): Homogeneous time resolved fluorescence (HTRF)-based cell-based dose response assay to identify antagonists of the parental CHO-K1 cell line. [Related pubchem assays (depositor defined):AID434989, AID435008, AID463079, AID485270, AID492963, AID492964, AID492965, AID493232, AID504699, AID504701]; assay type: functional; details: Cricetulus griseus
[4] = as §1, with “Fluorescence-based” for “Homogeneous time resolved fluorescence (HTRF)-based”, “cell-based high throughput” for “cell-based”, “CHO” for “CHO-K1”; assay type: functional
[5] = molecular target: T1, Orexin/Hypocretin receptor type 1 (Homo sapiens, UniProt O43613); assay: Homogeneous Time Resolved Fluorescence (HTRF)-based cell-based high throughput dose response assay for antagonists of the orexin 1 receptor (OX1R; HCRTR1). [Related pubchem assays (depositor defined):AID434989, AID435008, AID463079, AID485270, AID492963, AID492964, AID492965, AID493232, AID504717, AID504718]; assay type: functional
T1 sequence (O43613 whole entry): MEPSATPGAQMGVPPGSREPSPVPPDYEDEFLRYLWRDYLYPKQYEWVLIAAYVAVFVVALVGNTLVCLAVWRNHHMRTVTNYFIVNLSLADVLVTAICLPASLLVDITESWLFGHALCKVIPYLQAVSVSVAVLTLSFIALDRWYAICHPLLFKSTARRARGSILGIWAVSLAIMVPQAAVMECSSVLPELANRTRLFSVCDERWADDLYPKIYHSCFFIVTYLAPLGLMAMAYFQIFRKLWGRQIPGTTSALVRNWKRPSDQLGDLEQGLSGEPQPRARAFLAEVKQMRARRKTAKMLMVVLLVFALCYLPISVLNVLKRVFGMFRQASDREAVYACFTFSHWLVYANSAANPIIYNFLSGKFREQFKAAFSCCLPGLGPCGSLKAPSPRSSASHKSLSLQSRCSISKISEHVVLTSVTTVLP

[6] = molecular target: T1, Orexin/Hypocretin receptor type 1; assay: Fluorescence-based cell-based high throughput dose response assay for antagonists of the orexin 1 receptor (OX1R; HCRTR1). [Related pubchem assays (depositor defined):AID434989, AID435008, AID463079, AID485270, AID492963, AID492964, AID492965, AID493232, AID504717, AID504718]; assay type: functional
CHO = CHO cell viability loss, potency – luminescence, cytotoxicity control for TLR9-MyD88 binding inhibitor project, dose response (AID 588339); assay type: functional, cell-based, hamster; details: Cricetulus griseus;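 further: CHO cells stably coexpressing TLR9 and MyD88 fusions from primary screen; compound exposure lasted 48 hours before viability readout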
Beta Lactamase = Beta Lactamase (Pseudomonas aeruginosa, UniProt Q932Y6); assay: BLA reporter interference, concentration series – BLA reporter cells, FRET fluorescence, artefact control for TLR9-MyD88 binding inhibitor project, dose response (AID 588341); assay type: cell-based;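 further: cell based assay in CHO-K1 cells stably expressing beta-lactamase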
Sequence of Beta Lactamase (Q932Y6 whole entry): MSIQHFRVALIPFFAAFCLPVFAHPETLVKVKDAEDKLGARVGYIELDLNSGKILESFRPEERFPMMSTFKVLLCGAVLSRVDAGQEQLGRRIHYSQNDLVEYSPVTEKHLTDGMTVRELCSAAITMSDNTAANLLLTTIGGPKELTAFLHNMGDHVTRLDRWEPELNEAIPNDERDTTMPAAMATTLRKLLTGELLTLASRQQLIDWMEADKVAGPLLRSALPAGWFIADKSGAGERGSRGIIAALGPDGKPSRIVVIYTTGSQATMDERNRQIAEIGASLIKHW

Orexin receptor type 2 [7] = molecular target: T2, Orexin receptor type 2 (Homo sapiens, UniProt O43614); assay: Counterscreen assay for antagonists of the orexin 1 receptor (OX1R; HCRTR1): Fluorescence-based cell-based dose response assay for antagonists of the orexin 2 receptor (OX2R; HCRTR2), run by assay provider.; assay type: functional
T2 sequence (O43614 whole entry): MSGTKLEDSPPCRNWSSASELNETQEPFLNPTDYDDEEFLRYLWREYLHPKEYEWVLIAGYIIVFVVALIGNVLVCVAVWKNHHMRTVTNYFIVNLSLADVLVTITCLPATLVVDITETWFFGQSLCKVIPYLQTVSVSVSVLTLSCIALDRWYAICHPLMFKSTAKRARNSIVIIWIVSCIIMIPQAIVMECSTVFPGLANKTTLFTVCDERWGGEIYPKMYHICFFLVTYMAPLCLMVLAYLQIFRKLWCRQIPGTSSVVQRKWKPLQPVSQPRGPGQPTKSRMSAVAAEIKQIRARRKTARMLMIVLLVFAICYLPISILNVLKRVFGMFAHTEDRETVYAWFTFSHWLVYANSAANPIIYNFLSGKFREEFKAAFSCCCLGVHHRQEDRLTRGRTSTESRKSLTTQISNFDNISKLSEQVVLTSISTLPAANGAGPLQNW

Orexin receptor type 2 [8] = molecular target: T2, Orexin receptor type 2; assay: Counterscreen assay for antagonists of the orexin 1 receptor (OX1R; HCRTR1): Homogeneous Time Resolved Fluorescence (HTRF)-based cell-based dose response assay for antagonists of the orexin 2 receptor (OX2R; HCRTR2), run by assay provider.; assay type: functional
Aurora kinase A = Aurora kinase A (Homo sapiens, UniProt O14965); assay type: functional;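 further: value from the Navigating the Kinome kinase panel profiling, panel entry STK6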
Sequence of Aurora kinase A (O14965 whole entry): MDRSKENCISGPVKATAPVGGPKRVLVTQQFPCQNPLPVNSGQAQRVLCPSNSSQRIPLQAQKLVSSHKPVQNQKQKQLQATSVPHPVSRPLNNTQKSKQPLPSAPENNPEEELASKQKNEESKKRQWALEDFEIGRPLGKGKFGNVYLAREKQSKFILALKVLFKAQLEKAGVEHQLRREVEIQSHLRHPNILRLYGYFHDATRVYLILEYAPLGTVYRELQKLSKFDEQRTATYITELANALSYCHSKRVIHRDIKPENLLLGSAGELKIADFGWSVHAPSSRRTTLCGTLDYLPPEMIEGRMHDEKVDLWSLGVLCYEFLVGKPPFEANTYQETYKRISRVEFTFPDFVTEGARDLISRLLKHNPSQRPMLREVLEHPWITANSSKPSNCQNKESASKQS

Aurora kinase B = Aurora kinase B (Homo sapiens, UniProt Q96GD4); assay type: functional
Sequence of Aurora kinase B (Q96GD4 whole entry): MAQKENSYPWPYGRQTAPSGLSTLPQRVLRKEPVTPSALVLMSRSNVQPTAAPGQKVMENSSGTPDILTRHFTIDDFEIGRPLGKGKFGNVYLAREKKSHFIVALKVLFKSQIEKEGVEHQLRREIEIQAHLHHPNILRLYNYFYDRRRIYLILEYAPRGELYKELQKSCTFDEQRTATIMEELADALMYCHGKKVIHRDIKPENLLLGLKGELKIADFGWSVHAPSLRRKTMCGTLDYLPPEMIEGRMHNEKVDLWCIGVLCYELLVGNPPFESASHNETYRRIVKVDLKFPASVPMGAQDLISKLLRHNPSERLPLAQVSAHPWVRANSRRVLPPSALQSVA

[9] = HPDE-C7 pancreatic duct cell viability loss – fluorescence, HTS (AID 430); assay type: functional, cell-based; details: Homo sapiens
[10] = viability loss of HPDE-C7K cells – cell-based, fluorescence, HTS, primary screen (AID 431); assay type: functional; details: Homo sapiens
[11] = molecular target: Protein disulfide-isomerase (Homo sapiens, UniProt P07237); assay: inhibition of PDI-driven insulin aggregation – biochemical, turbidity, absorbance, cherry-picked samples, dose response (AID 602350); assay type: functional
Sequence of Protein disulfide-isomerase (P07237 whole entry): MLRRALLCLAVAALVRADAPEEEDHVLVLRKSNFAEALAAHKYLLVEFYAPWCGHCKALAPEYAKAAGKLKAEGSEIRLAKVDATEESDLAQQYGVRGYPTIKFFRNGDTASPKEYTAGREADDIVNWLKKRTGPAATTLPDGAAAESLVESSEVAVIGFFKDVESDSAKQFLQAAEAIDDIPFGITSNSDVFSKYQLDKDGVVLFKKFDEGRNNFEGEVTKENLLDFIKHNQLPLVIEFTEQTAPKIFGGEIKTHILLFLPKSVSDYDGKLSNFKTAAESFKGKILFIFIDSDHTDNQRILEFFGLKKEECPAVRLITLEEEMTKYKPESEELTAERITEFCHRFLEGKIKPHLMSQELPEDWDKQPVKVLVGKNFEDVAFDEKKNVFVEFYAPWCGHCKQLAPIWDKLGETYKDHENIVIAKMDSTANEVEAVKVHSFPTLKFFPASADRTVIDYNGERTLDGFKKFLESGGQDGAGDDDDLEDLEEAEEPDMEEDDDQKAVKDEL

Paired box protein Pax-8 = Paired box protein Pax-8 (Homo sapiens, UniProt Q06710); assay: PAX8 transcriptional activity inhibition in RMG-I – RMG-I cells, luciferase, cherry-pick, dose response (AID 687027); assay type: functional, cell-based;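 further: luciferase reporter driven by Pax8 target thyroperoxidase promoter measured by SteadyGlo luminescence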
Sequence of Paired box protein Pax-8 (Q06710 whole entry): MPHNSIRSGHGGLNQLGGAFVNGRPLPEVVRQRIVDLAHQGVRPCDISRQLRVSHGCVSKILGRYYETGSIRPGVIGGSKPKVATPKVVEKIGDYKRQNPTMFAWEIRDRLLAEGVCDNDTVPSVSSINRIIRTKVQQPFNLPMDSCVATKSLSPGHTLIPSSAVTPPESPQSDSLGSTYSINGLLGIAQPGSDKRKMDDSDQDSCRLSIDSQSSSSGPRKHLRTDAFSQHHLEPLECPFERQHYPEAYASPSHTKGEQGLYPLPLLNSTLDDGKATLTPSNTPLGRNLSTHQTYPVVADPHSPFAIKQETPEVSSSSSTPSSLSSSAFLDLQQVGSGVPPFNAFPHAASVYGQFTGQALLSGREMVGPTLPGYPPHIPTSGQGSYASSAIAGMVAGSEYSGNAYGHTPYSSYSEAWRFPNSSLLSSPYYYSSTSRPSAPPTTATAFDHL

[12] = reduced cellular PGC1a acetyl-lysine signal – cell-based, cherry-picked samples, dose response (AID 720514); assay type: functional;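 further: potency may reflect raised or lowered acetylation signal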
[13] = molecular target: T3, High affinity choline transporter 1 (Homo sapiens, UniProt Q9GZV3); assay: human choline transporter blockers, potency – cell-based, 5-point CRC, membrane potential dye, dose response (AID 504840); assay type: functional
T3 sequence (Q9GZV3 whole entry): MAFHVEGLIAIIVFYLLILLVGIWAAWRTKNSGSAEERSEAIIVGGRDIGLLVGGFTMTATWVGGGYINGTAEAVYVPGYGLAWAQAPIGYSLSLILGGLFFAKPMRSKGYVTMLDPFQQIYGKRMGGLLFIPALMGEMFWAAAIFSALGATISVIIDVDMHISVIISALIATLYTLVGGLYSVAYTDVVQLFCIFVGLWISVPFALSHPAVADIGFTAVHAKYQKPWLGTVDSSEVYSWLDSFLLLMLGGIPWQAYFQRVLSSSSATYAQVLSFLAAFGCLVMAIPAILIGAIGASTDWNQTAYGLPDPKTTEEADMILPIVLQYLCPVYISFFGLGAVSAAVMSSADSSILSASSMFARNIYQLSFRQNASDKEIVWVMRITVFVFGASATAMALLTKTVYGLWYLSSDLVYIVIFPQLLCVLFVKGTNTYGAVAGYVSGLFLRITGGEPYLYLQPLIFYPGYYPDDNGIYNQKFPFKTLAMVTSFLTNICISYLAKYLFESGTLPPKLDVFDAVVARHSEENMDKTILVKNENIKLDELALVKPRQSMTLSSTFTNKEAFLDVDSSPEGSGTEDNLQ

[14] = molecular target: T3, High affinity choline transporter 1; assay: human choline transporter blockers, potency – cell-based, 10-point CRC, membrane potential dye, dose response (AID 588401); assay type: functional;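 further: membrane potential dye fluorescence of choline-evoked depolarization via CHT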
[15] = molecular target: ALK tyrosine kinase receptor (Homo sapiens, UniProt Q9UM73); assay type: functional;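 further: ALK tested as one member of a kinase panel screen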
Sequence of ALK tyrosine kinase receptor (Q9UM73 whole entry): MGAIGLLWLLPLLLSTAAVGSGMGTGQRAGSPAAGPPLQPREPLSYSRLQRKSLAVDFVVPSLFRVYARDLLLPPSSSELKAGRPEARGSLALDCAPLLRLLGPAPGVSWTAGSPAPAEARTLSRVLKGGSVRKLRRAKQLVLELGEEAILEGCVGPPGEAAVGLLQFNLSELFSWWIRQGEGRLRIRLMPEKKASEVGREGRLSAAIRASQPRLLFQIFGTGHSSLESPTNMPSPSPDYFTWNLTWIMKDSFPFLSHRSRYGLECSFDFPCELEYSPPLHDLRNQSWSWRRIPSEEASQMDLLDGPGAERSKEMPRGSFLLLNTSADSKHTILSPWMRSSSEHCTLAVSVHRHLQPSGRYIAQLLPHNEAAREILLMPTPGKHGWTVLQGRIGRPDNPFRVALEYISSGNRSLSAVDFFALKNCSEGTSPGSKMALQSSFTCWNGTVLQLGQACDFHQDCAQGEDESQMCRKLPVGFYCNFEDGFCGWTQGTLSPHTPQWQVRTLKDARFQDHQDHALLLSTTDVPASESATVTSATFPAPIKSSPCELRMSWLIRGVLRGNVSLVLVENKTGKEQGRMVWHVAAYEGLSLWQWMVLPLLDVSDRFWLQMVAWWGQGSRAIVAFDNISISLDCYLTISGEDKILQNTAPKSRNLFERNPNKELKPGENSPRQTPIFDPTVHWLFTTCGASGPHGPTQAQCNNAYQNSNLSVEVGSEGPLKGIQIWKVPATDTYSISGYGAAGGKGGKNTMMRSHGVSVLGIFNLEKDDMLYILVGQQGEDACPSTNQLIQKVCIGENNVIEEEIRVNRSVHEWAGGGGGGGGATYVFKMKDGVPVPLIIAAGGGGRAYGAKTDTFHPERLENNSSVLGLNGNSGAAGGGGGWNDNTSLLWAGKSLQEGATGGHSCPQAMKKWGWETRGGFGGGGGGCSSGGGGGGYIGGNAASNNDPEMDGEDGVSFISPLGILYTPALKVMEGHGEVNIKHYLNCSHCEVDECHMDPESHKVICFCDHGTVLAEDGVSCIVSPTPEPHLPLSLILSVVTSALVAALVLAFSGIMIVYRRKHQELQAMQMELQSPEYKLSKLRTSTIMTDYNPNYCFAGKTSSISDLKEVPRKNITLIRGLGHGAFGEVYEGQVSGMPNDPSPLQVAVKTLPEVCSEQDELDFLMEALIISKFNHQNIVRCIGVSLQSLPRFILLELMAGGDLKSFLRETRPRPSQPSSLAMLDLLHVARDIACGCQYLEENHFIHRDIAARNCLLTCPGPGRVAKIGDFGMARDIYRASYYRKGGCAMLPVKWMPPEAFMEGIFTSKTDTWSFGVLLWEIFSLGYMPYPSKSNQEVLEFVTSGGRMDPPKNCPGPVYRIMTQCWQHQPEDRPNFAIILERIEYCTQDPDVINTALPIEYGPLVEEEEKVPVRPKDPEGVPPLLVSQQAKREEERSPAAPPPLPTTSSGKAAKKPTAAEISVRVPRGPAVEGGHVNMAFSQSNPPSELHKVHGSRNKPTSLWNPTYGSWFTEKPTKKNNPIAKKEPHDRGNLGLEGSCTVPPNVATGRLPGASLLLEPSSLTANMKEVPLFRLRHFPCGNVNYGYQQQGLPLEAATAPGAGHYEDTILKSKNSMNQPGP

SMILES: CCN(CC)c1ccc2cc(-c3nc4ccccc4n3C)c(=O)oc2c1
EC50 (BJ [1]): < 120 nM (active)
EC50 (BJ [2]): 345 nM (active)
EC50 [3]: 185 nM (active)
IC50 (CHO-K1): > 66.2 µM (inactive)
IC50 [4]: > 49.8 µM (inactive)
IC50 [5]: 1.14 µM (active)
IC50 [6]: 1.77 µM (active)
IC50 (CHO): 29.4 µM (inactive)
IC50 (Beta Lactamase): 2.56 µM (active)
IC50 (Orexin receptor type 2 [7]): 32 µM (inactive)
IC50 (Orexin receptor type 2 [8]): > 50 µM (inactive)

Ki (Aurora kinase A): 158 nM (active)
Ki (Aurora kinase B): 15.8 nM (active)
SMILES: CCc1cccc(NC(=O)Nc2ccc(-c3c(C)oc4ncnc(N)c34)cc2)c1

SMILES: Cc1ccc(S(=O)(=O)CCC(=O)c2ccc(O)cc2O)cc1
EC50 [9]: 9.12 µM (active)
EC50 [10]: 8.8 µM (active)
AC50 [11]: 15.6 µM (active)
AC50 (Paired box protein Pax-8): 4.59 µM (active)

SMILES: Cn1cnnc1Sc1ccc(/C=C/C(=O)c2ccc(O)cc2)cc1[N+](=O)[O-]
AC50 [11]: 0.422 µM (active)
AC50 [12]: 8.44 µM (active)

IC50 [13]: 7.77 µM (active)
IC50 [14]: 4.01 µM (active)
SMILES: CCOCCn1c(CN2CCN(c3ccc(F)cc3)CC2)nc2c1c(=O)n(C)c(=O)n2C

Ki [15]: 25.1 nM (active)
Ki (Aurora kinase A): 7.94 nM (active)
SMILES: CCc1cccc(NC(=O)Nc2ccc(-c3csc4c(-c5cnn(C)c5)cnc(N)c34)cc2)c1
